Assay results as given in patent publication US20170114128A1, “USE OF TGF-BETA ANTAGONISTS OF TREAT TYPE-2 DIABETES” (ALBERT EINSTEIN COLLEGE OF MEDICINE, INC., priority 2014, published 2017).

Legend:
[1] = test system: HEK 293 cells; test: IκBα mRNA levels in HEK 293 cells after TGF-β1 treatment; assay type: cell-based; conditions: HEK 293 cells (data not shown)
Text: TGF-β degrades IκBα mRNA to atypically activate NF-κB: RNA SGs/PBs have the function to degrade mRNAs by targeting the AU-rich element (AUE) at the 3′ untranslated region (UTR) (36-38). […] This information led to the suspicion that TGF-β could work to degrade IκBα mRNA. […] To test if TGF-β induced IκBα mRNA decay is accountable for the glucose metabolism disorder, an experiment was designed to study if the pro-diabetic effect of brain TGF-β excess could be reversed through directly increasing hypothalamic IκBα mRNA. Using an approach which was established previously (23), a lentiviral system was employed to deliver exogenous Iκbα mRNA into the mediobasal hypothalamus of chow-fed C57BL/6 mice, and indeed, this lentivirus-delivered Iκbα mRNA prevented TGF-β1 injection from activating hypothalamic NF-κB (FIG. 5f). Metabolic analysis confirmed that this treatment attenuated the effect of TGF-β1 from impairing insulin-dependent glucose control (FIG. 5g).

[2] = test system: hypothalamic RNA SGs/PBs genes, IκBα mRNA, Pomc mRNA; test: Hypothalamic mRNA levels and HuR immunostaining after third-ventricle TGF-β1; assay type: in vivo, mice
Text: POMC neurons direct the pro-T2D effect of TGF-β excess: It was subsequently studied if hypothalamic neurons are critical for the pro-diabetic effects of brain TGF-β excess. […] It was studied if POMC neurons could be crucial for the pro-diabetic effect of brain TGF-β excess. […] To carry out this study, a genetic mouse model was generated with Tgfbr2 knockout specifically in POMC neurons by crossing Tgfbr2lox/lox mice with POMC-Cre mice. As a result, compound offspring POMC-Tgfbr2lox/lox mice were obtained and littermate control Tgfbr2lox/lox mice. These mice were maintained on normal chow feeding or 3-week HFD feeding. […] Taken together, the action of TGF-β in POMC neurons is important for the pro-diabetic effect of brain TGF-β excess. POMC-Cre can target other types of neurons during the developmental stage (34), thus, the pro-diabetic mechanism of TGF-β may involve additional hypothalamic or brain neurons.
Induction of hypothalamic RNA SGs/PBs by TGF-β or HFD: In exploring how TGF-β could activate hypothalamic NF-κB without requiring pro-inflammatory kinase signaling, attention was directed to a possible role from mRNA regulation. In coping with inflammatory stress, eukaryotic cells can develop a process known as RNA stress response which is characterized by RNA stress granules (SGs) and processing bodies (PBs) (36-38). In this reaction, messenger ribonuclear protein (mRNP) byproducts exit from polysomes and form RNA SGs at discrete cytoplasmic foci. RNA SGs primarily consist of poly(A)+mRNAs-containing 48S pre-initiation complexes, small ribosomal subunits, mRNA decay factor tristetraprolin (TTP), translation initiation factors such as eukaryotic translation initiation factor-4E (eIF4E), eIF4G, eIF4A, eIF4B, poly(A)-binding protein (PABP), and RNA helicases (36-38). RNA stress response can lead to the export of mRNPs into the PBs, a complex which harbors an array of mRNA decay machineries that act to dispose mRNAs from SGs or polysomes (36-38). PBs contain nontranslating mRNAs, translation repressors, mRNA decay machineries (including 5′-3′ mRNA decay system, nonsense-mediated decay pathway, and RNA-induced silencing complex), and mRNA decay factors such as TTP, eIF4E, DEAD box RNA helicase family member p54/RCK, […] (CPEB), B-related factor 1/RNA polymerase III transcription initiation factor IIIB subunit (BRF1), eukaryotic translation initiation factor 4E transporter (4-ET), and RNA-binding protein Smaug (36-38). […] In line with these observations, we examined if the morphology of RNA SGs could be detected in the hypothalamus of these mice. […] Consistently, these morphological changes were found in the hypothalamus of HFD-fed mice but almost not chow-fed mice (supplementary FIG. 6b). […]

[3] = TGF-β1 concentrations in CSF and blood after third-ventricle injection; assay type: in vivo, mice
Experimental: Brain TGF-β excess impairs glucose tolerance: To study the metabolic effects of brain TGF-β excess, a pharmacological approach was first used by which TGF-β was delivered into the hypothalamic third ventricle of normal C57BL/6 mice via pre-implanted cannula. To optimize the dosage, different doses of TGF-β1 (0, 0.5, 1.0, and 4.0 ng) were injected, and TGF-β1 concentrations measured in the CSF at various time points post-injection. […] Based on this condition, overnight-fasted mice were given intra-third ventricle injections of TGF-β1 in these doses, one injection at night after food was removed, and the second injection in the following morning at 4 hours prior to glucose tolerance test (GTT). […] In sum, a pharmacological induction of brain TGF-β excess can acutely cause pre-diabetic changes including glucose intolerance and insulin resistance.
Protein, mRNA and peptide analyses. Hypothalami were isolated as previously described (14). Tissue lysis, SDS/PAGE and Western blotting were performed as previously described (19). Primary antibodies in Western blots included anti-IκBα (Santa Cruz, #SC847, 1:500), anti-p-TAK1 (Cell Signaling, #4531, 1:1000), anti-p-IκBα (Cell Signaling, #2859, 1:1000), anti-RelA (Cell Signaling, #3039, 1:1000), anti-p-RelA (Cell Signaling, #4764, 1:1000), and anti-β-actin (Cell Signaling, #4967S, 1:1000), and secondary antibodies were HRP-conjugated anti-rabbit or goat antibody (Pierce, 1:2000). Quantification of Western blots was processed with Image J. Total RNA was extracted from hypothalamic tissue using TRIzol® (Invitrogen), and cDNA was synthesized using M-MLV RT System (Promega). Using SYBR® Green PCR Master Mix (Applied Biosystems), expression levels of target genes were analyzed via PCR amplification and quantification. GAPDH or TBP mRNA levels were used for normalization. […] Serum and CSF TGF-β content were measured using TGF-β ELISA kit (R&D Systems).

Question: Which “IκBα mRNA levels” value [1] does the source give for “TGF-β1: transforming growth factor-β1 (Sigma), cytokine dissolved in artificial cerebrospinal fluid for third-ventricle injection” here?
Answer: The value was “notably decreased”.

Question: What about the “HuR-containing aggregates in perinuclear regions of hypothalamic cells” value ([2]; HuR immunostaining) of the same substance?
Answer: The value was “present”.

Question: And the “hypothalamic increases of RNA SGs/PBs genes” value ([2]; injection into the third ventricle of normal mice (4 ng), similar to 3-month HFD)?
Answer: The value was “similarly induced”.

Question: What about the “hypothalamic IκBα mRNA levels” value ([2]; intra-third ventricle injection (4 ng)) of the same substance?
Answer: Its value is “sufficient to decrease”.

Question: What about the “Pomc mRNA levels in the hypothalamus vs controls” value ([2]; mouse, in vivo) of the same substance?
Answer: The value was “lower”.

Question: And the “CSF TGF-β1 concentration relative to basal concentration” value ([3]; 60 min post-injection)?
Answer: Its value is “roughly 2 fold”.

Question: What about the “blood TGF-β1 concentration” value ([3]; doses 0.5, 1.0, 4.0 ng in third ventricle) of the same substance?
Answer: The value was “None of these doses significantly increased”.

Question: What about the “time of peak increase of CSF TGF-β1 concentration” value ([3]; post-injection, third ventricle, 0.5-4.0 ng, dose-dependent) of the same substance?
Answer: The value was 15 min.
